For assay [1], the target named is T1, Polyadenylate-binding protein 1 (Homo sapiens, UniProt P11940). Briefly: PABP1 MLLE–PAM2 binding inhibitor potency, dose response, biochemical, fluorescence polarization, FITC-PAM2 peptide (AID 602259). Particulars: read-out: IC50_Mean. Type of assay: functional. A general note: Fluorescence polarisation rises when a labelled molecule tumbles more slowly, as on binding a larger partner.

Assay [2] addresses T1, Polyadenylate-binding protein 1. Briefly: PABP1 MLLE–PAM2 interaction inhibitors, dose response, miRNA deadenylation inhibitor project, biochemical, fluorescence polarization, Cy5-PAM2 peptide, secondary (AID 602260). Type of assay: functional. The conditions noted are these: read-out: IC50_Mean.
A further assay addresses Large T antigen (Simian virus 40, UniProt P03070). The assay is classed as functional, Betapolyomavirus macacae.
For assay [3], the target named is Dual specificity tyrosine-phosphorylation-regulated kinase 1A (Rattus norvegicus, UniProt Q63470). The assay is classed as biochemical, Homo sapiens.
Assay [4] addresses CAAX prenyl protease 2 (Saccharomyces cerevisiae S288c, UniProt Q03530). The assay is classed as biochemical.
Assay [5] concerns the target T2, Ubiquitin-conjugating enzyme E2 N (Homo sapiens, UniProt P61088).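 Note: Dose-response confirmation in a TR-FRET assay detecting UBC13-driven polyubiquitin chain formation, inhibition measured.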
T2 sequence (P61088 whole entry): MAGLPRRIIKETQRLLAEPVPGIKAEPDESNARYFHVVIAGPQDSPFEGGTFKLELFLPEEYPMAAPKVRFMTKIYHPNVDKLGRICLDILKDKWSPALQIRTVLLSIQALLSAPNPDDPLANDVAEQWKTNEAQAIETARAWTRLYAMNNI
Type of assay: functional.

The next assay addresses Trypsin (Sus scrofa, UniProt P00761). As to the kind of experiment: porcine trypsin inhibitors, dose response, selectivity assay for Rce1 protease inhibitor project, biochemical, quenched peptide fluorescence, cherry-pick (AID 488789).
In assay [6] the target is CAAX prenyl protease 2 (Homo sapiens, UniProt Q9Y256). Briefly: human Rce1 protease inhibitors, dose response, biochemical, yeast membranes, quenched-peptide fluorescence, cherry-pick (AID 588849).
The subject of assay [7] is Vero. Briefly: cells. Type of assay: functional. Particulars: Chlorocebus sabaeus.
A further assay has as its target T3, Hexokinase HKDC1 (Homo sapiens, UniProt Q2TB90).
T3 sequence (Q2TB90 whole entry): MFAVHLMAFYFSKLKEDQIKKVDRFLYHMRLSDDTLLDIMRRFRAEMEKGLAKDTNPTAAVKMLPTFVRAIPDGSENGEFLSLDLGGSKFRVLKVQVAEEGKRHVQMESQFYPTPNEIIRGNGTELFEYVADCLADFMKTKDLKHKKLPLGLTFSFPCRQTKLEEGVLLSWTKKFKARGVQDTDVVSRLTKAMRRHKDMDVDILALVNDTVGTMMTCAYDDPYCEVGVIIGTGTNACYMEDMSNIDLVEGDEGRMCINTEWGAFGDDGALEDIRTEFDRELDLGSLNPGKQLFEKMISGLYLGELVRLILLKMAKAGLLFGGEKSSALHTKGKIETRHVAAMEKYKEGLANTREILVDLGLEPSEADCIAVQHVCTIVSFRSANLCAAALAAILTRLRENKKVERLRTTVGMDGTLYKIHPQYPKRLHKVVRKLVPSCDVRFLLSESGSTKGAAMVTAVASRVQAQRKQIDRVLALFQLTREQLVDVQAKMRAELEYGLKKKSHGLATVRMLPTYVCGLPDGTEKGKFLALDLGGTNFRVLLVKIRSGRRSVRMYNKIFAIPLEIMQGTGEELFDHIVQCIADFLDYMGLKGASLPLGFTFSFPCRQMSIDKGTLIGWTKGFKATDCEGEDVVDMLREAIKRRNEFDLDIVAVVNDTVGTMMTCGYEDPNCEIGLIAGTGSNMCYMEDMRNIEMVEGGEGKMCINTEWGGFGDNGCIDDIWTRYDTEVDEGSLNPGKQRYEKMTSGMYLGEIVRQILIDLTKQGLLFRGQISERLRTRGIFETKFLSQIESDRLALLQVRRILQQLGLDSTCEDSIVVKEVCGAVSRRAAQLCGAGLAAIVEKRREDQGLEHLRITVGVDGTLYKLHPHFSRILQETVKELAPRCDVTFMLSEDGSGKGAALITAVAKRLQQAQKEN
As to the kind of experiment: HKDC1 hexokinase inhibitors, dose response, biochemical, W721R variant (AID 504729). Type of assay: functional.

For a further assay, the system named is Streptococcus. As to the kind of experiment: Group A Streptococcus viability loss, dose response, counter-screen for streptokinase expression inhibitor project, luminescence, BacTiterGlo (AID 1915).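 Note: potency for reduction of bacterial viability or growth.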 Type of assay: functional, organism-based.
A further assay concerns the target T4, Streptokinase A (Streptococcus pyogenes serotype M1, UniProt P10520).
T4 sequence (P10520 whole entry): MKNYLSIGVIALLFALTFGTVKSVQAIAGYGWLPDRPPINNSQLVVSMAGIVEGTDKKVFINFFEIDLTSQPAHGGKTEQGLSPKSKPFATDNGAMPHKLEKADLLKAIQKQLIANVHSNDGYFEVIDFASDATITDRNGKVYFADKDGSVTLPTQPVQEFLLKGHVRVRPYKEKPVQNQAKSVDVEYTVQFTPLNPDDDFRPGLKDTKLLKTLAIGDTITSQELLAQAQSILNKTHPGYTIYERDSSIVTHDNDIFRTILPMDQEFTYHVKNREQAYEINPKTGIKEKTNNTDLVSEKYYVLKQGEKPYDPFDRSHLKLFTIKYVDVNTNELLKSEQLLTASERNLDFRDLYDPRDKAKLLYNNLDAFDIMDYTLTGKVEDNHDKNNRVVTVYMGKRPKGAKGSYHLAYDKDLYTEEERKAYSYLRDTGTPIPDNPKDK
Briefly: S. pyogenes streptokinase expression inhibitors, potency, dose response, plasminogen activation absorbance, OD405 (AID 1914).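 Note: secreted streptokinase activity via plasminogen activation per viability signal from cell pellet.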 Type of assay: functional, Streptococcus pyogenes M1 GAS.

Assay [8] has as its system Vero. As to the kind of experiment: Vero cell cytotoxicity, cytotoxicity control for flavivirus capping enzyme inhibitors (AID 588742). Particulars: Chlorocebus sabaeus. Type of assay: functional.
In a further assay the target is Genome polyprotein (dengue virus type 2, UniProt P29990). As to the kind of experiment: Dengue-2 NS5 methyltransferase inhibitors, primary screen, biochemical, confirmation dose response (AID 588689). Type of assay: functional.
Assay [9] relates to Streptococcus sp. 'group A'. Briefly: growth inhibition of control SK(-) GAS strain, dose response, counter-screen for streptokinase expression inhibitor project, luminescence, kanamycin, BacTiterGlo, confirmation (AID 1900). The assay is classed as functional, organism-based. In general terms: A counterscreen serves to expose hits that act by an unwanted route or on another target.

The subject of assay [10] is A-375. Briefly: A375 melanoma cell viability reduction, dose response, counter-screen for MITF modulator project, cherry-pick samples, set 2 (AID 540335). Particulars: Homo sapiens. The assay is classed as functional, cell-based.
Assay [11] has as its system A-375. Briefly: MITF: Counter assay: A375 proliferation Measured in Cell-Based System Using Plate Reader - 2084-03_Inhibitor_Dose_DryPowder_Activity. [Related pubchem assays (depositor defined):AID488944]. Type of assay: functional. Particulars: Homo sapiens.
Assay [12] relates to BJ. Briefly: cytotoxicity toward BJ-TERT fibroblasts, dose response, cell-based, RAS-independent, luminescence (AID 1933). Type of assay: functional. The conditions noted are these: Homo sapiens.
A short description of assay [13]: A Cell Based Secondary Assay To Explore Cytotoxicity of Compounds that Sensitize Mycobacterium Tuberculosis to Beta-Lactam Antibiotics. The assay is classed as functional.
The test system of assay [14] is BJ. Briefly: cytotoxicity toward BJ-TERT-LT-ST fibroblasts, dose response, cell-based, RAS-independent, luminescence (AID 1935).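 Note: BJ fibroblasts immortalized with TERT plus LT and ST oncogenes.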 Type of assay: functional. Particulars: Homo sapiens.
Assay [15] concerns the target T5, Microphthalmia-associated transcription factor (Homo sapiens, UniProt O75030).
T5 sequence (O75030 whole entry): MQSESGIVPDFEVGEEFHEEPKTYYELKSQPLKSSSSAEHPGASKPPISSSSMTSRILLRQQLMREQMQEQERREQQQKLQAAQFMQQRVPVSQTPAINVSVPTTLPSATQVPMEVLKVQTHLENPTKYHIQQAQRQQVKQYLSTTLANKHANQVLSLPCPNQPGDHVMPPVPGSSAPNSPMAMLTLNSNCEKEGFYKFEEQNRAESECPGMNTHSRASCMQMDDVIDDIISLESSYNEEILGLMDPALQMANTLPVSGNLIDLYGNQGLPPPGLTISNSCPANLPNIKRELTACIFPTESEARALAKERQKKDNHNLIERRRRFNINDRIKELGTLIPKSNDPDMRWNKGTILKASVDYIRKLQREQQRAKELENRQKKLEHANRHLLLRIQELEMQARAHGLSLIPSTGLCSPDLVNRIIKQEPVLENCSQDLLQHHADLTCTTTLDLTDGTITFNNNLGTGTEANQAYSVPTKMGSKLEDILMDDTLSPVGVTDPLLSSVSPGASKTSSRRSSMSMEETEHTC
As to the kind of experiment: TRPM1 promoter luciferase signal decrease, dose response, MITF inhibitor project, cell-based, SK-MEL-5, cherry-picked, set 3 (AID 493073).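 Note: SK-MEL-5 melanoma cells with luciferase driven by the MITF target TRPM1 promoter.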 The assay is classed as functional.

The test system of assay [16] is BJ. As to the kind of experiment: cells. The assay is classed as functional, cell-based. The conditions noted are these: Homo sapiens.
Assay [17] in a line: cytotoxicity toward DRD oncogenic fibroblasts, dose response, cell-based, non-viral oncogenic, luminescence (AID 1934). Type of assay: functional. Particulars: Homo sapiens.
Assay [18] concerns the target Voltage-gated inwardly rectifying potassium channel KCNH2 (Homo sapiens, UniProt Q12809). Particulars: Potency.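 Note: confirmatory quantitative high-throughput screen measuring inhibition of hERG channel activity.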
For assay [19], the target named is Glucose-6-phosphate 1-dehydrogenase (Homo sapiens, UniProt P11413). As to the kind of experiment: human G6PD enzyme inhibitors, dose response, selectivity assay for P. falciparum G6PD inhibitor project, biochemical, fluorescence (AID 504792). The assay is classed as functional.
Another assay addresses DNA topoisomerase (Yersinia pestis, UniProt A0A2S9PM60). As to the kind of experiment: Y. pestis Topo-I inhibitors, cleavage product readout, dose response, biochemical, cherry-pick (AID 588525).
The test system of assay [20] is HEK293. Briefly: SAR Analysis of small molecule inhibitors of T-cell specific antigen receptor-induced NF-kB activation in a HEK-293T cell line using a luminescence assay - Set 2. [Related pubchem assays (depositor defined):AID435003, AID435012, AID489026]. Type of assay: functional, cell-based. Particulars: Homo sapiens.
The test system of assay [21] is HEK293. Briefly: cytotoxicity in HEK293T NF-kB-Luc cells, SAR follow-up, cytotoxicity control for NF-kB activator project, cell-based, resazurin fluorescence (AID 493251). The assay is classed as functional. Particulars: Homo sapiens.
A further assay concerns Jurkat. Briefly: SAR Analysis of small molecule inhibitors of T-cell specific antigen receptor-induced NF-kB activation in a Jurkat cell line using a luminescence assay - Set 2. [Related pubchem assays (depositor defined):AID435003, AID435012, AID465]. The assay is classed as functional, cell-based. The conditions noted are these: Homo sapiens.

Here are results for 10 compounds from ChEMBL document CHEMBL1201862, “PubChem BioAssay data set” (2004).

The structures appear in SMILES notation. Activity calls are given as the source filed them. Some results are limits rather than exact numbers.

Voltage-gated inwardly rectifying potassium channel KCNH2, sequence (Q12809 whole entry): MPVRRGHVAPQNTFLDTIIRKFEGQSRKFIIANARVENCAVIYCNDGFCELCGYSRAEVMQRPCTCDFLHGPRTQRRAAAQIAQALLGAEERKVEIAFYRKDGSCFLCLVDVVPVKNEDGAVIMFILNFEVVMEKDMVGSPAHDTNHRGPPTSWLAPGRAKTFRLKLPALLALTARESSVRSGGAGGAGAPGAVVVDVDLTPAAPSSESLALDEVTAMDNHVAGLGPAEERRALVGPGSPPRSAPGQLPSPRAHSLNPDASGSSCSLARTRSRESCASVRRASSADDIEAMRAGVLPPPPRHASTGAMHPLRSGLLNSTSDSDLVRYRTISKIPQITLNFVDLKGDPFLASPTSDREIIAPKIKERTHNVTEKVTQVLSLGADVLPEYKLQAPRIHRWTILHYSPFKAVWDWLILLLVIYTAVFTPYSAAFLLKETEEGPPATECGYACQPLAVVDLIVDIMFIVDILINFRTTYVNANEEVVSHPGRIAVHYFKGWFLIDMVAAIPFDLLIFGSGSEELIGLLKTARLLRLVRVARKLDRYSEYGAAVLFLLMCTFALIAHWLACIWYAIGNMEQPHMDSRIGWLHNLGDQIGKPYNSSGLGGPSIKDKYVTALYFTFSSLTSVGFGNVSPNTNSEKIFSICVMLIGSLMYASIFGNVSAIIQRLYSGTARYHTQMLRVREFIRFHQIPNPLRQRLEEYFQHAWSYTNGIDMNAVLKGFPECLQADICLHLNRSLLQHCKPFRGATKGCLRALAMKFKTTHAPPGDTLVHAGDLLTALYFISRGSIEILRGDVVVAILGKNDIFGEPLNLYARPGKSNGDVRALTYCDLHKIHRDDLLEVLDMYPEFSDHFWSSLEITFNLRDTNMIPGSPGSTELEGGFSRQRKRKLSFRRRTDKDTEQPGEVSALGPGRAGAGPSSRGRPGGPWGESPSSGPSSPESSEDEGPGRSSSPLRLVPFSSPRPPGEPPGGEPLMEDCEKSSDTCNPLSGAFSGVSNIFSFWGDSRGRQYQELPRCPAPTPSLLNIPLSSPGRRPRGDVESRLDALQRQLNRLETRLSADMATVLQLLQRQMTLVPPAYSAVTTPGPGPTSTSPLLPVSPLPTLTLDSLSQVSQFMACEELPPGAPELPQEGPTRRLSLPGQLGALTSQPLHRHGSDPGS
T1 sequence (P11940 whole entry): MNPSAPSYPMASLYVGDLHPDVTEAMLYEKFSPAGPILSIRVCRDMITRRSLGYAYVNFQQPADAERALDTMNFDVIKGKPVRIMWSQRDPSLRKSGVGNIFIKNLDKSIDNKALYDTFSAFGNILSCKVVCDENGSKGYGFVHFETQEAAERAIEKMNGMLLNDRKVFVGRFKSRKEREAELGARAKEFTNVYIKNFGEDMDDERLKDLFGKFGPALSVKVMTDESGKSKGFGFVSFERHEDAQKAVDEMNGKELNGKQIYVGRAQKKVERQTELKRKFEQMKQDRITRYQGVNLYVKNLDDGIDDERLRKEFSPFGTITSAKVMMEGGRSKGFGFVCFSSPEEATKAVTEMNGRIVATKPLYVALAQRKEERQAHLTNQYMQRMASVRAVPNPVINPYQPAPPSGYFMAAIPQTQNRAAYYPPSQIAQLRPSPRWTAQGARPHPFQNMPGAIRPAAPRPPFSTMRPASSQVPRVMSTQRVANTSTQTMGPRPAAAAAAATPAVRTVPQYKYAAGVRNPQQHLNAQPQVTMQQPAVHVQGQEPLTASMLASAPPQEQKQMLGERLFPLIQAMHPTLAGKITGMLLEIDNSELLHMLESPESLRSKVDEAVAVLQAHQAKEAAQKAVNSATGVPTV
DNA topoisomerase, sequence (A0A2S9PM60 whole entry): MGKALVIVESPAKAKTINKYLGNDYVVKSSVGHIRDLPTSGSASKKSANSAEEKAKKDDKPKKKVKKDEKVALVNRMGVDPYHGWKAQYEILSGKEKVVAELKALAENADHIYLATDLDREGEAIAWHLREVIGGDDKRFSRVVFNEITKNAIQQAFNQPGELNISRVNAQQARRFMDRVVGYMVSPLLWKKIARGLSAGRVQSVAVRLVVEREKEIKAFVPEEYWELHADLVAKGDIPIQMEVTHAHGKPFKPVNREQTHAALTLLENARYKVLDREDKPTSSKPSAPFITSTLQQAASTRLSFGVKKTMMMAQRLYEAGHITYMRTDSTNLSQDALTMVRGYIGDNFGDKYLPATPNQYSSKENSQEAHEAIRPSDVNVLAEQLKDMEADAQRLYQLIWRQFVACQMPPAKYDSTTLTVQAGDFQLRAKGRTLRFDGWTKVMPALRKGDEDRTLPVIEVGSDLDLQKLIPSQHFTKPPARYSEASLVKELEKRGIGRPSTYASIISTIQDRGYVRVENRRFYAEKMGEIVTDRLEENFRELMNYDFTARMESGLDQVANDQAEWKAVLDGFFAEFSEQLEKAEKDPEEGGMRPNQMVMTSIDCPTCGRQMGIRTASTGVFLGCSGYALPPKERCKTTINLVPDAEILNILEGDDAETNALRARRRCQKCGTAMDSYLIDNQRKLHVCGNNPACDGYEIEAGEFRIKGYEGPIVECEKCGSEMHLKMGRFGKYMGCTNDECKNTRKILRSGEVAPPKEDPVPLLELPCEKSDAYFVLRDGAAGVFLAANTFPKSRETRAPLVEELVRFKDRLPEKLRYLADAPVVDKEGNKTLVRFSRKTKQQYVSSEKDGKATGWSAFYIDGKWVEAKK
Genome polyprotein, sequence (P29990 2492-3391 limits assumed): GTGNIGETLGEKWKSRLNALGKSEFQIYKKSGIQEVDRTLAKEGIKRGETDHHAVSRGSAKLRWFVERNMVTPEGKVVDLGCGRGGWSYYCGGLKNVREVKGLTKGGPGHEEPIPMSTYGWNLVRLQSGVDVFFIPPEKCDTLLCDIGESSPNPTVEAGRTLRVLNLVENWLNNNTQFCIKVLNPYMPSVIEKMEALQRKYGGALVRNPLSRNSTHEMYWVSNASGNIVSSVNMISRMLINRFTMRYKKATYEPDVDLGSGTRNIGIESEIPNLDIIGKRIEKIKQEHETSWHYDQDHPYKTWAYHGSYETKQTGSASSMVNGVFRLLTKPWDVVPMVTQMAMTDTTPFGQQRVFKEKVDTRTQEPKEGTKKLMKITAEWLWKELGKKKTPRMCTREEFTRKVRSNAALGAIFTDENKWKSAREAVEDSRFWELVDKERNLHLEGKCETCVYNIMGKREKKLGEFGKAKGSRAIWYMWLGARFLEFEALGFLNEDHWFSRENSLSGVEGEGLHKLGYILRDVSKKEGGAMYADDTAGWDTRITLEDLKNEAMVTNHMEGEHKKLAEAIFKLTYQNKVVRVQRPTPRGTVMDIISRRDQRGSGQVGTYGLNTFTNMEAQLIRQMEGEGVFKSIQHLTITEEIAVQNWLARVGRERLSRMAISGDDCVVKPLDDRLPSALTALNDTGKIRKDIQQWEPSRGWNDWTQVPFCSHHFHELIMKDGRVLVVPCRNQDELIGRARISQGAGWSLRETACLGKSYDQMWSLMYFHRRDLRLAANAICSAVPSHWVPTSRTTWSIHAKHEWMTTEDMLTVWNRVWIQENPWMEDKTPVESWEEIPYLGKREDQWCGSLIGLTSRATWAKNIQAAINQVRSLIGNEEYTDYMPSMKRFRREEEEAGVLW
Large T antigen, sequence (P03070 whole entry): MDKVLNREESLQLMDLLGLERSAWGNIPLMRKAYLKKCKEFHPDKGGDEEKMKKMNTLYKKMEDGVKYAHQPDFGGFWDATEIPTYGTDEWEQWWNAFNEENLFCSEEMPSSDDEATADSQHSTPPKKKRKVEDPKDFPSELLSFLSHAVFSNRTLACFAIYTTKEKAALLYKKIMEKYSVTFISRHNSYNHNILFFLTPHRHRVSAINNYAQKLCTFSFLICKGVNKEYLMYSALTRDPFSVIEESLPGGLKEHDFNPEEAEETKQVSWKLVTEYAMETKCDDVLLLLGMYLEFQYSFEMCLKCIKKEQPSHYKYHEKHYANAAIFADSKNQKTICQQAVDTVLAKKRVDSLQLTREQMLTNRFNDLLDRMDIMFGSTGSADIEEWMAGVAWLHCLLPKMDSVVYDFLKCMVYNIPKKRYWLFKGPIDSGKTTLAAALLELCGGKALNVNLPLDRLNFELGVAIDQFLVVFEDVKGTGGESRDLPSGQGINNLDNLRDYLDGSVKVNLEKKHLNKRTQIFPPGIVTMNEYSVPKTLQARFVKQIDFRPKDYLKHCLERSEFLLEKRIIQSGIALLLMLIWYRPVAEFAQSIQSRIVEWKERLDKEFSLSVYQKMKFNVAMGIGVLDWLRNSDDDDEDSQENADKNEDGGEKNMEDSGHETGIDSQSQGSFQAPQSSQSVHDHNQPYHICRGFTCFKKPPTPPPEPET
Trypsin, sequence (P00761 whole entry): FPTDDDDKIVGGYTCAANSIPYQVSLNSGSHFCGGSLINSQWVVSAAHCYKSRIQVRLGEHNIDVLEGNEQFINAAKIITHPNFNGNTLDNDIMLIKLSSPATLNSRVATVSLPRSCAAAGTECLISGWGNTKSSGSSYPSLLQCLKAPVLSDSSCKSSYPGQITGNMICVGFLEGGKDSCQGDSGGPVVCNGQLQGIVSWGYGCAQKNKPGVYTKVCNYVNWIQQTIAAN
Glucose-6-phosphate 1-dehydrogenase, sequence (P11413 whole entry): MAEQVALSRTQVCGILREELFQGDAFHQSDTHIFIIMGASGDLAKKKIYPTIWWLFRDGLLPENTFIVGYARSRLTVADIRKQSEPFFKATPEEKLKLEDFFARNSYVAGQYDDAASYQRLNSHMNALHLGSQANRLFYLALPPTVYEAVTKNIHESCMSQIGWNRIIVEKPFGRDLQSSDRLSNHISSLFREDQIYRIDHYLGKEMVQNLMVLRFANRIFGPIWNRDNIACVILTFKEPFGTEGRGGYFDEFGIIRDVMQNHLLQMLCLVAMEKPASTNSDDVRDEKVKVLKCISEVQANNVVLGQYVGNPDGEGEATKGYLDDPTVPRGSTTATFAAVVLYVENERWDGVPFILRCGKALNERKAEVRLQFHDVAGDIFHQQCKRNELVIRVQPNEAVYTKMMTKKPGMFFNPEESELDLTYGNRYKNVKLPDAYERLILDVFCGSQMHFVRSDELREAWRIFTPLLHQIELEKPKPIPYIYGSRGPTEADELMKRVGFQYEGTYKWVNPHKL

For orientation: AC50 means the concentration giving half of the maximal activity seen. Consider `OC1=C2Sc3ccccc3N=C2CCC1`, for which the results for the IC50 (in assay [1]; in assay [2]; at Large T antigen) were 59 µM (inactive), 35.2 µM (inactive) and 9.55 µM (active), respectively. The AC50 in [3] was 8.45 µM (active).
`COc1ccc(-c2cc(C(=O)NCCCN3CCCC3=O)c3ccccc3n2)cc1`: the figures for the AC50 at CAAX prenyl protease 2 [4], on Trypsin and on CAAX prenyl protease 2 [6] were 18 µM (active), 9.31 µM (active) and 23.3 µM (active), respectively. The IC50 in [5] is > 20 µM (inactive).
One may read the CC50 as the concentration at which the toxic effect on the cells reaches its halfway point. As usually defined, the EC50 is the concentration giving half of the maximal effect. As to `COc1ccc(C(=O)c2coc3c2C(=O)C(=O)c2ccccc2-3)cc1`, the half-maximal cytotoxic concentration (CC50) with Vero [7] is > 25 µM (active); in the assay on Vero [8], > 40 µM (active). The IC50 was 11.3 µM (active) on Hexokinase HKDC1 and 34.5 µM (active) on Genome polyprotein. The EC50 with Streptococcus is 14.7 µM (active); on Streptokinase A, > 150 µM (not active); in [9], 1.84 µM (active).
Regarding `NC(=NOC(=O)c1ccncc1)c1cccc([N+](=O)[O-])c1`, the AC50 in the assay on A-375 [10] and in the assay with A-375 [11] was > 35 µM (active) throughout.
As to `COc1ccc2[nH]cc(C(=O)CCl)c2c1`, the 50% effective concentration (EC50) in the assay on BJ [12] is 4.61 µM (active); in the assay on BJ [14], 7.84 µM (inconclusive); in the assay on BJ [16] it was 7.02 µM (active); in [17], 8.64 µM (active). Further, the CC50 in assay [13] is 5.65 µM (active). For the same compound, the concentration at half-maximal activity (AC50) was 45.9 µM (active) with A-375 [10] and 5.65 µM (active) in [15].
As to `N=C1C=CC(=C(c2ccc(N)cc2)c2ccc(N)cc2)C=C1`, the AC50 in assay [18] is 44.7 µM (inconclusive).
With `CN(C)c1ccc2nc3ccc(=O)cc-3sc2c1`, the IC50 in [19] was > 80 µM (inactive). Moreover, on DNA topoisomerase, the AC50 is 4.67 µM (active).
For the compound `CCCOc1ccc(C(=O)Nc2ccc(S(=O)(=O)N3C[C@@H]4C[C@@H](C3)c3cccc(=O)n3C4)cc2)cc1`, the AC50 on DNA topoisomerase was 3.3 µM (active).
On to `CN1CCN(c2ccccc2NC(=O)c2ccc([N+](=O)[O-])o2)CC1`, for which the figures for the IC50 with HEK293 [20], in the assay with HEK293 [21] and in the assay with Jurkat were 15.6 µM (active), 23.6 µM (inactive) and 24.8 µM (inactive), respectively. Further, the half-maximal activity concentration (AC50) in assay [15] was 4.95 µM (active).
With `Clc1ccc(C(c2ccccc2Cl)C(Cl)(Cl)Cl)cc1` (stereo not drawn), the AC50 in assay [18] is 8.91 µM (inconclusive).
